Experimental findings from patent publication US9464082B2, “Aryl and arylalkyl substituted pyrazolyl and pyrimidinyl tricyclic enones as antioxidant inflammation modulators” (AbbVie Inc., priority 2014, dated 2016) are described below.

Broadly, the IC50 is the concentration that inhibits the measured activity by half.

This test relates to IFNγ-Induced NO Production. Briefly: Nitric Oxide Suppression Assay (Suppression of IFNγ-Induced NO Production). Format: cell-based. The settings on record: RAW264.7; RAW 264.7 mouse macrophage cells; 2 hour pre-treatment with compound (3 μM to 0.3 nM, 10 point curve); 20 ng/mL interferon gamma, ~18 hour; Griess detection; n=2-3 in duplicates. Put shortly: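 Griess-based absorbance read (520–550 nm) of supernatant after RAW 264.7 mouse macrophages received 10-point compound dilutions (3 μM–0.3 nM, DMSO ≤1%) for 2 h, then 20 ng/mL IFNγ for ~18 h at 37 °C. Signal normalised to IFNγ-only peak; IC50 fitted to mean of n=2-3 duplicates.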
On to `C[C@@H]1C(=O)C(C#N)=C[C@]2(c3ccccc3)c3nn(C)c(-c4cccc(-c5cccc(C(=O)O)c5)c4)c3CC[C@@H]12` [Example 166, 3′-[(5aS,6S,9aR)-8-cyano-2,6-dimethyl-7-oxo-9a-phenyl-4,5,5a,6,7,9a-hexahydro-2H-benzo[g]indazol-3-yl]biphenyl-3-carboxylic acid], for which the IC50 amounted to 65.6 nM.
`C[C@@H]1C(=O)C(C#N)=C[C@]2(c3ccccc3)c3nn(C)c(-c4cccc(-c5cn[nH]c5)c4)c3CC[C@@H]12` [Example 167, (5aS,6S,9aR)-2,6-dimethyl-7-oxo-9a-phenyl-3-[3-(1H-pyrazol-4-yl)phenyl]-4,5,5a,6,7,9a-hexahydro-2H-benzo[g]indazole-8-carbonitrile]: the IC50 was found to be 3.27 nM.
The value for `C[C@@H]1C(=O)C(C#N)=C[C@]2(c3ccccc3)c3nn(C)c(-c4cccc(-c5ccc(CNS(C)(=O)=O)cc5)c4)c3CC[C@@H]12` [Example 168, N-({3′-[(5aS,6S,9aR)-8-cyano-2,6-dimethyl-7-oxo-9a-phenyl-4,5,5a,6,7,9a-hexahydro-2H-benzo[g]indazol-3-yl]biphenyl-4-yl}methyl)methanesulfonamide] was 12.3 nM; that for `C[C@@H]1C(=O)C(C#N)=C[C@]2(c3ccccc3)c3nn(C)c(-c4cccc(-c5ccc(NS(C)(=O)=O)cc5)c4)c3CC[C@@H]12` [Example 169, N-{3′-[(5aS,6S,9aR)-8-cyano-2,6-dimethyl-7-oxo-9a-phenyl-4,5,5a,6,7,9a-hexahydro-2H-benzo[g]indazol-3-yl]biphenyl-4-yl}methanesulfonamide] was 8.77 nM; that for `C[C@@H]1C(=O)C(C#N)=C[C@]2(c3ccccc3)c3nn(C)c(-c4cccc(-c5ccc(O)cc5)c4)c3CC[C@@H]12` [Example 170, (5aS,6S,9aR)-3-(4′-hydroxybiphenyl-3-yl)-2,6-dimethyl-7-oxo-9a-phenyl-4,5,5a,6,7,9a-hexahydro-2H-benzo[g]indazole-8-carbonitrile] was 6.96 nM.
As for `C[C@@H]1C(=O)C(C#N)=C[C@]2(c3ccccc3)c3nn(C)c(-c4cccc(-c5ccc(C(N)=O)cc5)c4)c3CC[C@@H]12` [Example 171, 3′-[(5aS,6S,9aR)-8-cyano-2,6-dimethyl-7-oxo-9a-phenyl-4,5,5a,6,7,9a-hexahydro-2H-benzo[g]indazol-3-yl]biphenyl-4-carboxamide], the figure is 13.9 nM; as for `Cc1nc(-c2ccnnc2)c2c(n1)[C@@]1(c3ccccc3)C=C(C#N)C(=O)[C@@H](C)[C@@H]1CC2` [Example 172, (6aS,7S,10aR)-2,7-dimethyl-8-oxo-10a-phenyl-4-(pyridazin-4-yl)-5,6,6a,7,8,10a-hexahydrobenzo[h]quinazoline-9-carbonitrile], 49.4 nM; as for `Cc1noc(-c2ccc(-c3ncc4c(n3)[C@@]3(c5ccccc5)C=C(C#N)C(=O)[C@@H](C)[C@@H]3CC4)cc2)n1` [Example 173, (6aS,7S,10aR)-7-methyl-2-[4-(3-methyl-1,2,4-oxadiazol-5-yl)phenyl]-8-oxo-10a-phenyl-5,6,6a,7,8,10a-hexahydrobenzo[h]quinazoline-9-carbonitrile], 19.7 nM.
The value for `COc1ccc([C@]23C=C(C#N)C(=O)[C@@H](C)[C@@H]2CCc2c(-c4cncn4C)nc(C)nc23)cc1` [Example 174, (6aS,7S,10aR)-10a-(4-methoxyphenyl)-2,7-dimethyl-4-(1-methyl-1H-imidazol-5-yl)-8-oxo-5,6,6a,7,8,10a-hexahydrobenzo[h]quinazoline-9-carbonitrile] was 1.9 nM.
In the case of `COC(=O)c1ccc([C@]23C=C(C#N)C(=O)[C@@H](C)[C@@H]2CCc2c(-c4cncn4C)nc(C)nc23)cc1` [Example 175, methyl 4-[(6aS,7S,10aR)-9-cyano-2,7-dimethyl-4-(1-methyl-1H-imidazol-5-yl)-8-oxo-6,6a,7,8-tetrahydrobenzo[h]quinazolin-10a(5H)-yl]benzoate], the IC50 worked out at 2 nM.
In the case of `COC(=O)c1ccc([C@]23C=C(C#N)C(=O)[C@@H](C)[C@@H]2CCc2c(-c4c(Br)ncn4C)nc(C)nc23)cc1` [Example 176, methyl 4-[(6aS,7S,10aR)-4-(4-bromo-1-methyl-1H-imidazol-5-yl)-9-cyano-2,7-dimethyl-8-oxo-6,6a,7,8-tetrahydrobenzo[h]quinazolin-10a(5H)-yl]benzoate], the IC50 was 12.8 nM.
The value for `C[C@@H]1C(=O)C(C#N)=C[C@]2(c3ccccc3)c3nn(C)c(-c4cncnc4)c3CC[C@@H]12` [Example 177, (5aS,6S,9aR)-2,6-dimethyl-7-oxo-9a-phenyl-3-(pyrimidin-5-yl)-4,5,5a,6,7,9a-hexahydro-2H-benzo[g]indazole-8-carbonitrile] was 10.8 nM.
The value for `C[C@@H]1C(=O)C(C#N)=C[C@]2(c3ccccc3)c3nn(C)c(-c4cccnc4)c3CC[C@@H]12` [Example 178, (5aS,6S,9aR)-2,6-dimethyl-7-oxo-9a-phenyl-3-(pyridin-3-yl)-4,5,5a,6,7,9a-hexahydro-2H-benzo[g]indazole-8-carbonitrile] was 5.4 nM.
The value for `C[C@@H]1C(=O)C(C#N)=C[C@]2(c3ccccc3)c3c(c(-c4cncnc4)nn3C)CC[C@@H]12` [Example 179, (5aS,6S,9aR)-1,6-dimethyl-7-oxo-9a-phenyl-3-(pyrimidin-5-yl)-4,5,5a,6,7,9a-hexahydro-1H-benzo[g]indazole-8-carbonitrile] was 1.24 nM.
